The subject of test [1] is complement mediated hemolysis. Nature of the test: inhibition of complement mediated hemolysis. It is filed as cell-based. Here is the method: The complement mediated hemolysis is widely used as a means to determine the titration of complement. The principle of this method is based on the fact that hemolysis is caused by the activation of complement, when the latter is added to a complex (immune complex) of erythrocytes and the antibody thereof. The degree of hemolysis varies in proportion to the amount of complement added. Therefore, when a known amount of complement admixed with a C1 esterase inhibitor is used, the hemolysis must be suppressed in proportion to the inhibitory activity.
(§1) The anti-C1 esterase (C1r, C1s) activity was determined according to the method of Okamura et al. [K. Okamura, M. Muramatsu and B. Fujii, Biochem. Biophys. Acta, 295, 252-257 (1973)]. The inhibition of complement mediated hemolysis was determined according to the method of Baker et al. [B. R. Baker and E. H. Erickson, J. Med. Chem., 12, 408-414 (1969)]. The figures in Table 2 have the following meanings:
Inhibition of complement mediated hemolysis (%): The inhibitory activity is shown in terms of percent inhibition of the compound at varied concentrations: […]

Another test has as its system Kallikrein. Briefly: anti-kallikrein activity (hydrolysis of TAME). The note with it: for IC50: TAME hydrolysis, read-out: ID50 Kallikrein; for percentage inhibition Kallikrein: at 1×10^-5 M, figure in parentheses. It is filed as biochemical. Here is the method:
(§2) The anti-trypsin, anti-plasmin, anti-kallikrein and anti-thrombin activities were determined according to the method of Muramatsu et al. [M. Muramatsu, T. Onishi, S. Makino, Y. Hayashi and S. Fujii, J. of Biochem., 58, 214 (1965)]. […] The compound No. corresponds to the compound number shown in Examples.

For a further test, the target named is T1, C1r (Homo sapiens, UniProt P00736).
T1 sequence (P00736 464-705 limits assumed): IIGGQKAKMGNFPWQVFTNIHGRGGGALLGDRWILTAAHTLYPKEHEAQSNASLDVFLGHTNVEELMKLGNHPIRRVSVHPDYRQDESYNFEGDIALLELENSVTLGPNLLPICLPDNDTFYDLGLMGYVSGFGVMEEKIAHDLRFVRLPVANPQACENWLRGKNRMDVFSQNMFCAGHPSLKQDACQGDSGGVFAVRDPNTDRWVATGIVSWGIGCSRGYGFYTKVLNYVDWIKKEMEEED
T1 sequence (P00736 18-463 limits assumed): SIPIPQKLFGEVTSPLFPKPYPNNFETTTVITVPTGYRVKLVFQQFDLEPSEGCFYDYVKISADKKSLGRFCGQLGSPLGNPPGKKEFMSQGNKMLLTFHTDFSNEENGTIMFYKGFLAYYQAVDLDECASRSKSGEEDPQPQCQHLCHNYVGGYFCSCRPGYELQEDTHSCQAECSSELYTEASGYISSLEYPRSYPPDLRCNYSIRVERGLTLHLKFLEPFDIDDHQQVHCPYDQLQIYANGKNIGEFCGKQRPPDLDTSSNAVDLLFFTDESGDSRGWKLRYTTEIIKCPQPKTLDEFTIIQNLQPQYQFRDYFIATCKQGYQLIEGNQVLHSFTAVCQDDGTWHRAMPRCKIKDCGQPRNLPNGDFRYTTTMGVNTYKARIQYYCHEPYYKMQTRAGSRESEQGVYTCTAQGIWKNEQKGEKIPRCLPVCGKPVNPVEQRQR
Briefly: anti-C1 esterase (C1r) activity (hydrolysis of AAME). The test is classed as biochemical. The note with it: for IC50: AAME hydrolysis, read-out: ID50 C1r; for inhibition at 10 µM: at 1×10^-5 M, figure in parentheses, read-out: percent inhibition C1r. As for the experimental part:
as §1
C1r: Molar concentration of the test compound which inhibits 50% of the ability of C1r to hydrolyse AAME (acetylarginin methyl ester) (ID50).

The target in a further test is Plasmin (Homo sapiens, UniProt P00747). Nature of the test: anti-plasmin activity (hydrolysis of TAME). The conditions noted are these: for IC50: TAME hydrolysis, read-out: ID50 Plasmin; for inhibition at 10 µM: at 1×10^-5 M, figure in parentheses, read-out: percentage inhibition Plasmin. The test is classed as biochemical. As for the experimental part:
as §2

A further test has as its target T2, C1s (Homo sapiens, UniProt P09871).
T2 sequence (P09871 438-688 limits assumed): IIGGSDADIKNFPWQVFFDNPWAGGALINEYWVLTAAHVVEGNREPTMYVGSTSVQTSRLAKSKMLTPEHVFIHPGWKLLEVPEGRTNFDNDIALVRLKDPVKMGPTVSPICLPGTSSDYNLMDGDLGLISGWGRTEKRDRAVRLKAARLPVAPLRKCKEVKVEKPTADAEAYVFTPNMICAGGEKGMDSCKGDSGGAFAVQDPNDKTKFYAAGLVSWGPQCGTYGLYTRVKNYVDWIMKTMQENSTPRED
T2 sequence (P09871 16-437 limits assumed): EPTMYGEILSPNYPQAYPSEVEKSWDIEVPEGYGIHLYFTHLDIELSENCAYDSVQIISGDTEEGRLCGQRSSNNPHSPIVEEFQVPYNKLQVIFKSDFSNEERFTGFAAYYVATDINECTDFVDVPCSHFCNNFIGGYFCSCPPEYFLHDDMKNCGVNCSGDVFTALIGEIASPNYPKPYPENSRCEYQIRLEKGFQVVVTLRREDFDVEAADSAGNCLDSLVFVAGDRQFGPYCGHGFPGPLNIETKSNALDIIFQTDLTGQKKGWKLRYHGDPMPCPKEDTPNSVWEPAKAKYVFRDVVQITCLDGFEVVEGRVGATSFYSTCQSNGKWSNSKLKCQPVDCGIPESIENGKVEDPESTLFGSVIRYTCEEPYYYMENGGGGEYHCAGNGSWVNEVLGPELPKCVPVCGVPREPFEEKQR
Briefly: anti-C1 esterase (C1s) activity (hydrolysis of ATEE). The note with it: for IC50: ATEE hydrolysis, read-out: ID50 C1s; for inhibition at 10 µM: at 1×10^-5 M, figure in parentheses, read-out: percent inhibition C1s. The test is classed as biochemical. Here is the method:
as §1
C1s: Molar concentration of the test compound which inhibits 50% of the ability of C1s to hydrolyse ATEE (acetyltyrosin ethyl ester) (ID50).

The next test addresses Thrombin (Homo sapiens, UniProt P00734). Nature of the test: biochemical. The conditions noted are these: for IC50: TAME hydrolysis, read-out: ID50 Thrombin; for inhibition at 10 µM: at 1×10^-5 M, figure in parentheses, read-out: percentage inhibition Thrombin.
Another test concerns the target T3, Trypsin (Bos taurus, UniProt P00760).
T3 sequence (P00760 24-246): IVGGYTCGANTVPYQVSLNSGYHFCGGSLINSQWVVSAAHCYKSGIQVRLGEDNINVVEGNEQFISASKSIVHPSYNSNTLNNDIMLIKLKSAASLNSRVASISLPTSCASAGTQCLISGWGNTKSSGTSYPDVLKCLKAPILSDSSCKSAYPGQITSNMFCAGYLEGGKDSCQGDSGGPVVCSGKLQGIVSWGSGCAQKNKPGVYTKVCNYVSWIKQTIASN
Briefly: anti-trypsin activity (hydrolysis of TAME). The test is classed as biochemical. The conditions noted are these: read-out: ID50 Trypsin. As for the experimental part: as §2

The term inhibition denotes the share of the control response that was lost under treatment.

Plasmin, sequence (P00747 581-810 limits assumed, species assumed): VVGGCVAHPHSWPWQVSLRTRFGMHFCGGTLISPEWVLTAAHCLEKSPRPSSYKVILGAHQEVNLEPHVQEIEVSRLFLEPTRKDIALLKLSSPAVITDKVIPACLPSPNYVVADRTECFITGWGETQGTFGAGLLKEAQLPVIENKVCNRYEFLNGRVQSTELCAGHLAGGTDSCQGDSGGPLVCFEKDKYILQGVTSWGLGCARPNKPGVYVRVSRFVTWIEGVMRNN
Plasmin, sequence (P00747 97-580 limits assumed, species assumed): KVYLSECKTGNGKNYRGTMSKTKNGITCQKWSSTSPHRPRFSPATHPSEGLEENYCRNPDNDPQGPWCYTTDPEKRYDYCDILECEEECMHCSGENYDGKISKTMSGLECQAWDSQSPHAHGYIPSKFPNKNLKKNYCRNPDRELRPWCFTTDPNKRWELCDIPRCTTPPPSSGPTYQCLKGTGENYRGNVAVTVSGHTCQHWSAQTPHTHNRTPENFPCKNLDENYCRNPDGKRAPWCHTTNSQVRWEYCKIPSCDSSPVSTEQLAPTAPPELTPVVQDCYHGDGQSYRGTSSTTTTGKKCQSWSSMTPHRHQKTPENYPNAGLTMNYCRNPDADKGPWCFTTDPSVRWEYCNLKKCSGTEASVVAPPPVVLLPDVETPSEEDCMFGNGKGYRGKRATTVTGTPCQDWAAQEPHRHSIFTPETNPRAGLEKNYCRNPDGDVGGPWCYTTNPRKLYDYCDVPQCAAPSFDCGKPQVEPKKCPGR

In the case of `N=C(N)Nc1ccc(CCc2ccc(C(=O)Oc3ccc4cc(C(=N)N)ccc4c3)o2)cc1` [compound 2, 6-amidino-2-naphthyl 5-(p-guanidinophenylethyl)-furan-2-carboxylate], the “Inhibition of complement mediated hemolysis” value came to 100% in test [1] (1 × 10^-4), 100% in test [1] (1 × 10^-5), 97% in test [1] (1 × 10^-6) and 89% in test [1] (1 × 10^-7). The IC50 with Kallikrein worked out at 300 nM; at C1r, 200 nM; on Plasmin it was 400 nM; at C1s, 400 nM; on Thrombin it was 500 nM; at Trypsin, 200 nM.
For `CC(=O)OCc1ccc(C(=O)Oc2ccc3cc(C(=N)N)ccc3c2)o1` [compound 9], the “Inhibition of complement mediated hemolysis” value in test [1] (1 × 10^-4) was determined as 100%; in test [1] (1 × 10^-5), 100%; in test [1] (1 × 10^-6), 96%; in test [1] (1 × 10^-7), 77%. In addition, the IC50 with Kallikrein came out at 2000 nM; at C1r, 300 nM; on Plasmin it was 900 nM; on C1s, 4000 nM; on Thrombin, 300 nM; at Trypsin, 500 nM.
`N=C(N)c1ccc2cc(OC(=O)c3ccccn3)ccc2c1` [compound 45]: the “Inhibition of complement mediated hemolysis” value in test [1] (1 × 10^-4) was determined as 100%; in test [1] (1 × 10^-5), 98%; in test [1] (1 × 10^-6), 75%; in test [1] (1 × 10^-7), 46%. The “percentage inhibition Kallikrein” value in the test with Kallikrein is on record as “NE (the percentage inhibition is less than 10%)”. For the same compound, the inhibition at 10 µM on C1r stood at 18%; at C1s, 20%. Further, the figures for the IC50 at Plasmin, at Thrombin and at Trypsin were 7000 nM, 4000 nM and 5000 nM, respectively.
Regarding `N=C(N)c1ccc2cc(OC(=O)c3ccc(COCc4ccccc4)o3)ccc2c1` [compound 7], the “Inhibition of complement mediated hemolysis” value in test [1] (1 × 10^-4) came out at 100%; in test [1] (1 × 10^-5) it was 98%; in test [1] (1 × 10^-6) it was 96%; in test [1] (1 × 10^-7) it was 98%. The IC50 with Kallikrein amounted to 2000 nM; at C1r it was 300 nM; on Plasmin, 3000 nM; on C1s, 4000 nM; on Thrombin, 400 nM; on Trypsin, 500 nM.
For `N=C(N)c1ccc2cc(OC(=O)c3ccc[nH]3)ccc2c1` [compound 28], the “Inhibition of complement mediated hemolysis” value is on record as 88% in test [1] (1 × 10^-4), 55% in test [1] (1 × 10^-5), 28% in test [1] (1 × 10^-6) and “NE (the percentage inhibition is less than 10%)” in test [1] (1 × 10^-7). Also, the “percentage inhibition Kallikrein” value with Kallikrein is recorded as “NE (the percentage inhibition is less than 10%)”. The inhibition at 10 µM was 31% on C1r, less than 10% on Plasmin and less than 10% at Thrombin. Moreover, the figures for the IC50 on C1s and at Trypsin were 300 nM and 6000 nM, respectively.
In the case of `N=C(N)c1ccc2cc(OC(=O)c3cc4ccccc4o3)ccc2c1` [compound 16], the “Inhibition of complement mediated hemolysis” value stood at 100% in test [1] (1 × 10^-4), 99% in test [1] (1 × 10^-5), 99% in test [1] (1 × 10^-6) and 98% in test [1] (1 × 10^-7). Moreover, the “percentage inhibition Kallikrein” value in the test on Kallikrein is recorded as “NE (the percentage inhibition is less than 10%)”. For the same compound, the IC50 on C1r is 4000 nM; at Plasmin, 3000 nM; on Thrombin, 7000 nM; on Trypsin it was 2000 nM. The inhibition at 10 µM on C1s was less than 10%.
Turning to `N=C(N)c1ccc2cc(OC(=O)C=Cc3ccco3)ccc2c1` [compound 14], the “Inhibition of complement mediated hemolysis” value in test [1] (1 × 10^-4) was 98%; in test [1] (1 × 10^-5), 94%; in test [1] (1 × 10^-6) it was 72%; in test [1] (1 × 10^-7), 20%. In addition, the IC50 with Kallikrein is 5000 nM; at C1r it was 3000 nM; at Plasmin it was 300 nM; on C1s, 400 nM; on Thrombin, 7000 nM; on Trypsin it was 1000 nM.
On to `N=C(N)c1ccc2cc(OC(=O)c3ccc([N+](=O)[O-])o3)ccc2c1` [compound 65, 6-amidino-2-naphthyl 5-nitrofuran-2-carboxylate], for which the “Inhibition of complement mediated hemolysis” value is given as 100% in test [1] (1 × 10^-4), 100% in test [1] (1 × 10^-5), 89% in test [1] (1 × 10^-6) and 80% in test [1] (1 × 10^-7). For the same compound, the “percentage inhibition Kallikrein” value in the test with Kallikrein is recorded as “NE (the percentage inhibition is less than 10%)”. Further, the inhibition at 10 µM was 30% on C1r, less than 10% at Plasmin, 28% at C1s and 13% on Thrombin. In addition, the IC50 at Trypsin was 800 nM.
On to `N=C(N)c1ccc2cc(OC(=O)c3ccoc3)ccc2c1` [compound 4], for which the “Inhibition of complement mediated hemolysis” value in test [1] (1 × 10^-4) is 100%; in test [1] (1 × 10^-5), 65%; in test [1] (1 × 10^-6) it was 30%; in test [1] (1 × 10^-7), “NE (the percentage inhibition is less than 10%)”. Also, the “percentage inhibition Kallikrein” value in the test on Kallikrein came to 43%. Moreover, the IC50 on C1r turned out to be 600 nM; on Plasmin, 1000 nM; at C1s it was 300 nM; on Thrombin it was 700 nM; at Trypsin, 2000 nM.

Source of the values: US4634783A, “Novel amidine compound” (Torii & Co. Ltd., priority 1983, dated 1987).
